Data from patent publication US5723494A, “Derivatives of glutamic and aspartic acids, a method of preparing them, and their use as drugs for enhancing memory and learning” (priority 1993, dated 1998).
Where two headings read alike, the source gives them in different places.

What was measured:
[1] = Antiamnesic activity in the mouse (step-down passive avoidance, amnesia induced by ECS); type: in vivo, mouse (CD1 male); conditions: for change in vivo at 30 mg/kg: 30 mg/kg OS; for ED50 / Antiamnesic activity (in words): OS; for ED50: 60 min before training, read-out: ID50 (antiamnesic activity, dose inhibiting the amnesic effect of the ECS by 50%)
Excerpt: 1) Antiamnesic activity in the mouse (step-down passive avoidance)
An electroconvulsive shock (ECS) produces retrograde amnesia in the test animal if applied immediately after the training received, for example, a harmful stimulus of a suitable intensity.
The object of the experiment was to study the effects of the compounds of the invention in antagonizing the amnesic effect of an ECS on the short-term memory consolidation process.
CD1 male mice which weighed about 30-35 g, and had not fasted were used. The equipment used was a rectangular plexiglass cage (21×21×40cm) with an electrifiable grid floor and a wooden cube (4×4×4 cm) fixed in the centre of the cage. The animals were treated orally with the product under test 60 minutes before the training.
The mouse was placed delicately on the wooden cube and the time it took to descend to the grid floor (SDL=step-down latency) was measured. When all four of the animal's paws were resting on the floor the continuous 0.2 mA shock started and the time taken by The mouse to remount the wooden cube (EL=escape latency) was measured.
The animals with an SDL of between 3 and 30 sec and with an EL of between 3 and 60 sec were used for retesting.
Immediately afterwards, a transcorneal ECS was applied with the use of the following parameters: amperage 15 mA, frequency 50 Hz, duration of the train of pulses 0.4 sec. duration of each individual pulse 1 msec., interval between pulses 20 msec. As well as the groups treated with ECS, a control group without ECS and a control group with ECS were used.
The retest was carried out after 24 h.
The results are expressed as the percentage variation of the SDL of the treated groups in comparison with the control group by means of this formula: [formula]

[2] = Memory-enhancement activity in the passive avoidance test in the rat; type: in vivo, rat (male Wistar); conditions: for change in vivo at 0.1 mg/kg / change in vivo at 1 mg/kg / change in vivo at 10 mg/kg: 96 h, read-out: % variation vs controls (FS) in step through latency; for ED30 / Activity in increasing the avoidance time (in words): IP; for ED30: read-out: ED30 (dose increasing the latency time (STL) by 30%)
Description: 2) Memory-enhancement activity in the "passive avoidance" test in the rat
A "passive avoidance" model was used, which required a single "step-through" situation and a retest of the "retention memory" 72 h after the training.
Male Wistar rats which weighed about 200 g and had not fasted, were used. The test consisted of evaluating the degree of memory of an animal after it had been trained as follows.
The equipment used was a shuttle box modified thus: one compartment was lined with black card including the cover, and a 60 W lamp was disposed above the other, spaced from the grid floor by about 40 cm. The two compartments were divided by an automatic guillotine-like door. Each animal was placed in the compartment in the light with the guillotine-likedoor open. From this moment, the time taken by the rat to go into the compartment lined with black card (the dark compartment) (the step-throughlatency=STL) was measured. The animals which took more than 30 sec to go into the dark were discarded. Once they had gone into the dark, the door was lowered automatically and a=0.1 mA shock lasting 5 sec (a foot shock=FS) started. After 10 sec, the animal was removed from the shuttle box.
Upon completion, the animals were selected randomly in homogeneous groups and treated with the products.
The retest to determine memory was made after 72 hours. The products were administered chronically in the preselected manner twice per day and the last treatment 30 min before the retest (6 treatments altogether).
The memory-retention test (the retest) consisted of placing each animal, treated 30 min beforehand with a physiological solution or with the product, in the compartment which was not lined with black card for 30 sec.
The results are expressed as the percentage variation of the STL (in seconds) of the groups treated in comparison with the control group by means of this formula: [formula]

[3] = system: excitor amino-acid receptors of cortical membranes ("forebrain") of rats; assay: Inhibition of the specific binding of [3H]-glutamate to rat forebrain membranes; conditions: for IC50: rat forebrain membranes, 20 min, 37° C., pH 7.1
Excerpt: 6) Studies on binding to rat "forebrain" membranes
L-glutamate recognizes all three receptor subtypes indicated above, al though not selectively. It is therefore desirable to evaluate the capacity of each of the compounds of the invention to interact with the excitor amino-acid receptors of the CNS.
"Forebrain", that is, the cerebral cortex and the hippocampus, were selected as the receptor tissue and ^3 H-L-glutamate as the ligand for marking this heterogenous receptor population.
Rat cerebral tissue (forebrain without striated tissue) was therefore homogeneised cold in tris buffer at pH 7.4. After washing and centrifuging, the final pellet was resuspended in 50 volumes of tris HCl binding buffer at 7.1. 0.5 ml of receptor membrane thus obtained were then incubated, together with the radioactive tracer and the compounds under test, for 20 min at 37° C. The reaction was terminated by separating the bound radio-ligand from the free radio-ligand by filteration on glass-fibre filters which, after washing, were counted in a liquid scintillator (a β-counter) thus determining the radioactivity associated with the pellet. The specific binding was determined as the difference between the binding in the absence and in the presence of cold 3.6 mM L-glutamate.

[4] = Antidepressant activity in the behavioural despair test in the mouse; type: in vivo, mouse (male CD1); conditions: for inhibition in vivo at 3 mg/kg: 3 mg/kg IP; for inhibition in vivo at 10 mg/kg: 10 mg/kg IP; for inhibition in vivo at 30 mg/kg: 30 mg/kg IP; for ED50: read-out: ED50 (dose antagonising immobility time by 50%)
Excerpt: 5) Antidepressant activity in the "behavioural despair test" Another interesting aspect of the pharmacological activity of these products is the potent antidepressant activity which some of them display in an experimental model in the mouse, in which a state of depression is induced experimentally by the method of Porsolt et al. (Arch. Int. Pharmacodyn. 229, p. 327-336 (1977)). Male CDl mice which weighed about 20-25 g and had not fasted were used. The test consisted of inducing a state of depression in the animal which was subjected to forced swimming in a glass cylinder from which it could not escape. After a short period of vigorous activity the mouse adopted a characteristic posture of immobility which was easily identifiable; this immobility is reduced by antidepressant drugs. 1 l glass beakers, filled to 700 ml with water at a temperature of 25° C. were used for the test. The mice, 8 per group, were treated intraperitoneally with the drug under test, 30 minutes before the test. At time 0, each animal was immersed in a beaker and, after one minute during which all moved about swimming vigorously in order to escape, regardless of treatment, the observer, who was unaware of the treatment, assigned the following points: 0=animal immobile 1=minimum movement to remain afloat 2=vigorous swimming The greater the antidepressant activity of the drug, the more the animals will move about in order to try to escape from the water. The points were assigned every 15 sec for a total period of 5 min with a total of 20 observations. The antidepressant activity was determined with the use of various doses of the compound by the regression method as the ED50, that is, the dose in mg/kg of the compound which could antagonise the animal's immobility time by 50%.

[5] = Antagonism of the amnesic effect induced by scopolamine in the passive avoidance test in the rat; type: in vivo; conditions: for % Effect vs controls / Latency (STL): FS + SCOP
Description: 4) Antagonism of the amnesic effect induced by scopolamine in the "passive avoidance" test in the rat.
The shuttle box equipment was used for passive avoidance as described in Experiment 2 with the following modifications: the compounds (or physiological solutions for the control group) were administered intraperitoneally (IP) 45 min before the training, whereas scopolamine (SCOP) was administered 30 min before the training. The foot shock (FS) consisted of a 0.2 mA shock of 5 sec duration.
The retest to determine memory was executed 24 h after the training. In each individual experiment, the following groups were used: a control group (-FS), a control group (+FS), a control group (FS+SCOP), 3 treatment groups with different doses of the product under test (FS+SCOP).

[6] = po, 3 mg/kg OS, mouse, retest 24 h after training, read-out: Reversal of the amnesia (% vs controls), as the increase in the Step Down Latency
[7] = po, 10 mg/kg OS, mouse, retest 24 h after training, read-out: Reversal of the amnesia (% vs controls), as the increase in the Step Down Latency
[8] = po, mouse, retest 24 h after training, read-out: Reversal of the amnesia (% vs controls), as the increase in the Step Down Latency
[9] = 0.1 mg/kg IP, rat, retest on the 4th day, 6 treatments
[10] = 1 mg/kg IP, rat, retest on the 4th day, 6 treatments
[11] = 10 mg/kg IP, rat, retest on the 4th day, 6 treatments
[12] = 5 min, 5 minutes, read-out: Decrease in immobility (as %) vs the controls
[13] = Mus musculus, po, 24 h, read-out: Reversal of the amnesia (% vs controls), as the increase in the Step Down Latency

Row | Structure (SMILES) | change in vivo at 3 mg/kg [1, 6] | change in vivo at 10 mg/kg [1, 7] | change in vivo at 30 mg/kg [1, 8] | ED50 ([1]; po, mouse) | change in vivo at 0.1 mg/kg [2, 9] | change in vivo at 1 mg/kg [2, 10] | change in vivo at 10 mg/kg [2, 11] | ED30 ([2]; rat) | Activity in increasing the avoidance time (in words) ([2]; rat, retest on the 4th day) | IC50 [3] | inhibition in vivo at 3 mg/kg [4, 12] | inhibition in vivo at 10 mg/kg [4, 12] | inhibition in vivo at 30 mg/kg [4, 12] | ED50 ([4]; IP) | Antiamnesic activity (in words) ([1]; mouse) | Antidepressant activity (in words) ([4]; IP) | further results
1 | N[C@@H](CCC(=O)O)C(=O)NC1CCCCCC1 [Compound 20] | 15% | 41% | 61% | 17.3 mg/kg | 7% | 20% | 36% | 4.2 mg/kg | considerable activity in increasing the avoidance time | 14.4 µM | 0% | 11% | 52% | 36.1 mg/kg | – | – | Activity in inhibiting the binding of glutamate (in words) ([3]; rat cortical membranes): considerable activity in inhibiting the binding of the glutamate
2 | CC1(C)CCC(NC(=O)[C@H](N)CCC(=O)O)CC1 [Compound 24] | – | 11% | – | – | 8% | 0% | 0% | – | inactive | > 1000 µM | 0% | 16% | 19% | – | completely inactive | inactive | change in vivo at 0.1 mg/kg ([1]; po, 0.1 mg/kg OS, mouse, retest 24 h after training, read-out: Reversal of the amnesia (% vs controls), as the increase in the Step Down Latency): 0%; change in vivo at 1 mg/kg ([1]; po, 1 mg/kg OS, mouse, retest 24 h after training, read-out: Reversal of the amnesia (% vs controls), as the increase in the Step Down Latency): 0%; ED50 (dose antagonising immobility time by 50%) ([4]; IP): Inactive
3 | N[C@@H](CC(=O)O)C(=O)NCCC12CC3CC(CC(C3)C1)C2 [Compound 43] | 19% | – | 53% | 38.3 mg/kg | 10% | 16% | 29% | 16.9 mg/kg | – | 33.5 µM | 34% | 60% | 93% | 6.4 mg/kg | less active | antidepressant effect of the same order of magnitude as the comparison drug used, amitriptyline | change in vivo at 0.3 mg/kg ([1]; po, 0.3 mg/kg OS, mouse, retest 24 h after training, read-out: Reversal of the amnesia (% vs controls), as the increase in the Step Down Latency): 13%; inhibition in vivo at 1 mg/kg ([4]; 5 min, 1 mg/kg IP, 5 minutes, read-out: Decrease in immobility (as %) vs the controls): 0%
4 | Nc1c2c(nc3ccccc13)CCCC2 [Tacrine, reference compound] | – | – | – | – | – | – | – | – | inactive | – | – | – | – | – | inactive | – | change in vivo at 0.1 mg/kg [1, 13]: 10%; change in vivo at 1 mg/kg [1, 13]: 9%; change in vivo at 3 mg/kg [1, 13]: 20%; change in vivo at 10 mg/kg [1, 13]: 9%; change in vivo at 0.1 mg/kg ([2]; Rattus norvegicus, ip): 7%; change in vivo at 1 mg/kg ([2]; Rattus norvegicus, ip): 6%; change in vivo at 10 mg/kg ([2]; Rattus norvegicus, ip): 12%; % Effect vs controls ([5]; 0.3 mg/kg IP): 0%; Latency (STL) ([5]; 0.3 mg/kg IP): 59.7 s; % Effect vs controls ([5]; 1 mg/kg IP): 41.1%; Latency (STL) ([5]; 1 mg/kg IP): 73.1 s; % Effect vs controls ([5]; 3 mg/kg IP): 49.2%; Latency (STL) ([5]; 3 mg/kg IP): 75.3 s; % Effect vs controls ([5]; 10 mg/kg IP): 64.8%; Latency (STL) ([5]; 10 mg/kg IP): 79.5 s; ED50 ([5]; Rattus norvegicus, ip, 24 h, read-out: ID50 (dose antagonizing the amnesic effect of scopolamine by 50%)): 3.4 mg/kg
